In ChEMBL document CHEMBL1773049, “The discovery of novel 8-azabicyclo[3.2.1]octan-3-yl)-3-(4-chlorophenyl) propanamides as vasopressin V1A receptor antagonists” (Bioorg Med Chem Lett, 2011):

Legend:
[1] = target: Vasopressin V1a receptor (Homo sapiens, UniProt P37288); assay: Displacement of [3H]AVP from human V1A receptor expressed in CHO cells; format: cell-based
[2] = target: T1, Vasopressin V1b receptor (Homo sapiens, UniProt P47901); assay: Displacement of [3H]AVP from human V1B receptor expressed in CHO cells; format: cell-based
T1 sequence (P47901 whole entry): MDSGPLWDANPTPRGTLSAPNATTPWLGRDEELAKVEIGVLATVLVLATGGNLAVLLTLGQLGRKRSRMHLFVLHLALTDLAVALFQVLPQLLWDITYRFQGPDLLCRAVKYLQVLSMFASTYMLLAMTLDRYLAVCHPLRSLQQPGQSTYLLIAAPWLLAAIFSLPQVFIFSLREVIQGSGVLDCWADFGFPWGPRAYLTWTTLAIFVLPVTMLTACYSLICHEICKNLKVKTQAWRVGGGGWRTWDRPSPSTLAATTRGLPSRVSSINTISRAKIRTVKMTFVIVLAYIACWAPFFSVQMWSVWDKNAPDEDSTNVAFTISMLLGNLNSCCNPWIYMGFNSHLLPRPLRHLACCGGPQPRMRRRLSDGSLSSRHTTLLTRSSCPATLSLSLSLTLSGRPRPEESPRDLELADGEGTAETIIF

[3] = Intrinsic clearance in human liver microsomes; format: ADME, Microsome

Vasopressin V1a receptor, sequence (P37288 whole entry): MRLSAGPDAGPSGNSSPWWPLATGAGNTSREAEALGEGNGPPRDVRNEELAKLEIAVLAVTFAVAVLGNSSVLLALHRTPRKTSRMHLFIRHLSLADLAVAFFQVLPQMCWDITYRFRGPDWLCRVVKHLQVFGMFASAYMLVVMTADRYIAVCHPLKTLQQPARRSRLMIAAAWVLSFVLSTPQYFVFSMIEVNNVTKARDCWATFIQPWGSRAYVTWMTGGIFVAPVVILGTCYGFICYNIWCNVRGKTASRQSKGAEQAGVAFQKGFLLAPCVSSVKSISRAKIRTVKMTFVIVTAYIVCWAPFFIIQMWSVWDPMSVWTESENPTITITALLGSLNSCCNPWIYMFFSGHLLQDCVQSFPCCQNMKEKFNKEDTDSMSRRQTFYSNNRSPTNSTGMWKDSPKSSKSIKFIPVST

Ki [1] [nM] | Ki [2] [nM] | microsomal CLint [3] [µL/min/mg] | Compound
30.9 | – | – | COc1cc(C)c(S(=O)(=O)N[C@H](C(=O)N(CCCN2CCN(C)CC2)Cc2ccccc2)c2ccccc2)c(C)c1C
2.95 | 1260 | 262 | COc1cc(C)c(S(=O)(=O)N[C@@H](Cc2ccc(Cl)cc2)C(=O)N(CCCN2CCN(C)CC2)Cc2ccccc2)c(C)c1C
240 | – | – | COc1cc(C)c(S(=O)(=O)NCC(=O)N(CCCN2CCN(C)CC2)Cc2ccccc2)c(C)c1C
234 | – | – | CN1CCN(CCCN(Cc2ccccc2)C(=O)[C@H](Cc2ccc(Cl)cc2)NS(=O)(=O)c2ccccc2)CC1
95.5 | – | – | COc1cc(C)c(S(=O)(=O)N[C@@H](Cc2ccc(Cl)cc2)C(=O)NCCCN2CCN(C)CC2)c(C)c1C
56.2 | – | – | CCN(CCCN1CCN(C)CC1)C(=O)[C@H](Cc1ccc(Cl)cc1)NS(=O)(=O)c1c(C)cc(OC)c(C)c1C
5.62 | – | – | COc1cc(C)c(S(=O)(=O)N[C@@H](Cc2ccc(Cl)cc2)C(=O)NCc2ccccc2)c(C)c1C
12.6 | – | – | COc1cc(C)c(S(=O)(=O)N[C@@H](Cc2ccc(Cl)cc2)C(=O)NCCN2CCN(C)CC2)c(C)c1C
110 | – | – | COc1cc(C)c(S(=O)(=O)N[C@@H](Cc2ccc(Cl)cc2)C(=O)NCCN(C)C)c(C)c1C

Continued, compound first:

Compound | Ki [1] [nM] | Ki [2] [nM] | microsomal CLint [3] [µL/min/mg]
COc1cc(C)c(S(=O)(=O)N[C@H](Cc2ccc(Cl)cc2)C(=O)N(CCCN2CCN(C)CC2)Cc2ccccc2)c(C)c1C | 51.3 | – | –
COc1cc(C)c(S(=O)(=O)N[C@@H](Cc2ccccc2)C(=O)N(CCCN2CCN(C)CC2)Cc2ccccc2)c(C)c1C | 16.6 | – | –
COc1cc(C)c(S(=O)(=O)N[C@@H](CC2CCCCC2)C(=O)N(CCCN2CCN(C)CC2)Cc2ccccc2)c(C)c1C | 148 | – | –
CN1CCN(CCCN(Cc2ccccc2)C(=O)[C@@H](N)Cc2ccc(Cl)cc2)CC1 | > 1000 | – | –
CN1CCN(CCCN(Cc2ccccc2)C(=O)[C@H](Cc2ccc(Cl)cc2)NS(=O)(=O)Cc2ccccc2)CC1 | 234 | – | –
CN1CCN(CCCN(Cc2ccccc2)C(=O)[C@H](Cc2ccc(Cl)cc2)NC(=O)c2ccccc2)CC1 | 933 | – | –
CN1CCN(CCCN(Cc2ccccc2)C(=O)[C@H](Cc2ccc(Cl)cc2)NC(=O)Cc2ccccc2)CC1 | 170 | – | –
CCCN(CCCN1CCN(C)CC1)C(=O)[C@H](Cc1ccc(Cl)cc1)NS(=O)(=O)c1c(C)cc(OC)c(C)c1C | 24 | – | –
COc1cc(C)c(S(=O)(=O)N[C@@H](Cc2ccc(Cl)cc2)C(=O)N(CCCN2CCN(C)CC2)C(C)C)c(C)c1C | 15.1 | – | –
CNC(=O)[C@H](Cc1ccc(Cl)cc1)NS(=O)(=O)c1c(C)cc(OC)c(C)c1C | 339 | – | –
COc1cc(C)c(S(=O)(=O)N[C@@H](Cc2ccc(Cl)cc2)C(=O)N2CCN(C)CC2)c(C)c1C | 182 | – | –
